From patent US12365696B2, “Small-molecule focal adhesion kinase (FAK) inhibitors” (DANA-FARBER CANCER INSTITUTE, INC., priority 2019, dated 2025)
Where two headings read alike, the source gives them in different places.

Tests used:
Experiment in all cases: KINOMEscan
Format in all cases: binding
[1] = target: ABL1(M351T)-phosphorylated (Homo sapiens (Human), UniProt P00519, M351T); conditions: 10000 nM, read-out: Percent Control
[2] = target: FLT3(D835V) (Homo sapiens (Human), UniProt P36888, D835V); conditions: 10000 nM, read-out: Percent Control
[3] = target: ALK(L1196M) (Homo sapiens (Human), UniProt Q9UM73, L1196M); conditions: 10000 nM, read-out: Percent Control
[4] = target: CTK (Homo sapiens (Human), UniProt P42679); conditions: 10000 nM, read-out: Percent Control
[5] = target: FLT3 (Homo sapiens (Human), UniProt P36888); conditions: FLT3, 10000 nM; read-out: Percent Control
[6] = target: DMPK (Homo sapiens (Human), UniProt Q09013); conditions: 10000 nM, read-out: Percent Control
[7] = target: CDKL2 (Homo sapiens (Human), UniProt Q92772); conditions: CDKL2, 10000 nM; read-out: Percent Control
[8] = target: EPHA5 (Homo sapiens (Human), UniProt P54756); conditions: EPHA5, 10000 nM; read-out: Percent Control
[9] = target: PIK3C2B (Homo sapiens (Human), UniProt O00750); conditions: 10000 nM, read-out: Percent Control
[10] = target: EGFR(L861Q) (Homo sapiens (Human), UniProt P00533, L861Q); conditions: 10000 nM, read-out: Percent Control
[11] = target: ABL1-phosphorylated (Homo sapiens (Human), UniProt P00519); conditions: 10000 nM, read-out: Percent Control
[12] = target: LKB1 (Homo sapiens (Human), UniProt Q15831); conditions: LKB1, 10000 nM; read-out: Percent Control
[13] = target: PRKCQ (Homo sapiens (Human), UniProt Q04759); conditions: 10000 nM, read-out: Percent Control
[14] = target: ZAK (Homo sapiens (Human), UniProt Q9NYL2); conditions: 10000 nM, read-out: Percent Control
[15] = target: DCAMKL1 (Homo sapiens (Human), UniProt O15075); conditions: DCAMKL1, 10000 nM; read-out: Percent Control
[16] = target: EPHA3 (Homo sapiens (Human), UniProt P29320); conditions: EPHA3, 10000 nM; read-out: Percent Control
[17] = target: KIT(D816V) (Homo sapiens (Human), UniProt P10721, D816V); conditions: 10000 nM, read-out: Percent Control
[18] = target: MARK1 (Homo sapiens (Human), UniProt Q9P0L2); conditions: MARK1, 10000 nM; read-out: Percent Control
[19] = target: PIK4CB (Homo sapiens (Human), UniProt Q9UBF8); conditions: 10000 nM, read-out: Percent Control
[20] = target: RSK3(Kin.Dom.2-C-terminal) (Homo sapiens (Human), UniProt Q15349); conditions: 10000 nM, read-out: Percent Control
[21] = target: BRSK1 (Homo sapiens (Human), UniProt Q8TDC3); conditions: BRSK1, 10000 nM; read-out: Percent Control
[22] = target: TXK (Homo sapiens (Human), UniProt P42681); conditions: 10000 nM, read-out: Percent Control
[23] = target: MTOR (Homo sapiens (Human), UniProt P42345); conditions: 10000 nM, read-out: Percent Control
[24] = target: BTK (Homo sapiens (Human), UniProt Q06187); conditions: 10000 nM, read-out: Percent Control
[25] = target: ROCK1 (Homo sapiens (Human), UniProt Q13464); conditions: ROCK1, 10000 nM; read-out: Percent Control
[26] = target: ASK2 (Homo sapiens (Human), UniProt O95382); conditions: ASK2, 10000 nM; read-out: Percent Control
[27] = target: MAPKAPX5 (Homo sapiens (Human), UniProt Q8IW41); conditions: read-out: Percent Control
[28] = target: CDC2L5 (Homo sapiens (Human), UniProt Q14004); conditions: CDC2L5, 10000 nM; read-out: Percent Control
Experimental: (§1) Selectivity profiling of compound 3 among a panel of kinases was performed with KINOMEscan® as set forth below. The KINOMEscan® screening platform employs an active site-directed competition binding assay to quantitatively measure interactions between a test compound, e.g., compound 3, and more than 450 kinases and disease-relevant mutant variants.
(§2) Screening of compound 3 was conducted at a concentration of 10 μM by Eurofins DiscoverX. Activity is measured as the ability of compound 3 to displace the kinase from a solid support relative to a negative control (i.e., DMSO). The output is % control.

[29] = target: PRP4 (Homo sapiens (Human), UniProt Q13523); conditions: PRP4, 10000 nM; read-out: Percent Control
Experimental: as §1, §2

[30] = target: PIK3CA(H1047Y) (Homo sapiens (Human), UniProt P42336, H1047Y); conditions: 10000 nM, read-out: Percent Control
[31] = target: INSRR (Homo sapiens (Human), UniProt P14616); conditions: 10000 nM, read-out: Percent Control
[32] = target: KIT(L576P) (Homo sapiens (Human), UniProt P10721, L576P); conditions: 10000 nM, read-out: Percent Control
[33] = target: CDK8 (Homo sapiens (Human), UniProt P49336); conditions: CDK8, 10000 nM; read-out: Percent Control

Sequence of DMPK (Q09013 whole entry): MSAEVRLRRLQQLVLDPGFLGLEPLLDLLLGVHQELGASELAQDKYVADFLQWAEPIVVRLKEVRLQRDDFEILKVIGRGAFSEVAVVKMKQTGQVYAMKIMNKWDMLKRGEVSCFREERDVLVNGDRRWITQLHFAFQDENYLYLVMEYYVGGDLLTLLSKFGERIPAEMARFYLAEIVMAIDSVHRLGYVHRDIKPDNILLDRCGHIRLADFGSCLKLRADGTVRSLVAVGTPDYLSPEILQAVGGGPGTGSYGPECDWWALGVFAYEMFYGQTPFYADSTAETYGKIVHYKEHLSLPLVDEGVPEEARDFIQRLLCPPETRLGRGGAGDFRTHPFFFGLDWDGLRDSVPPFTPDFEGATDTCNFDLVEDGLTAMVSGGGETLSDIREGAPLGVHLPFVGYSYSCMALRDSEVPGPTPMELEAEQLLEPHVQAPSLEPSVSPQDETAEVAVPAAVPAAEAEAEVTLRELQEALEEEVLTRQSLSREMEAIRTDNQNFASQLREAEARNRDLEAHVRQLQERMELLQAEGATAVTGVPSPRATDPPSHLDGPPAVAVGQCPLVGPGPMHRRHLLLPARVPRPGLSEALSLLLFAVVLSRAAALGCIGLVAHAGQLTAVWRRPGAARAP
Sequence of RSK3(Kin.Dom.2-C-terminal) (Q15349 415-672): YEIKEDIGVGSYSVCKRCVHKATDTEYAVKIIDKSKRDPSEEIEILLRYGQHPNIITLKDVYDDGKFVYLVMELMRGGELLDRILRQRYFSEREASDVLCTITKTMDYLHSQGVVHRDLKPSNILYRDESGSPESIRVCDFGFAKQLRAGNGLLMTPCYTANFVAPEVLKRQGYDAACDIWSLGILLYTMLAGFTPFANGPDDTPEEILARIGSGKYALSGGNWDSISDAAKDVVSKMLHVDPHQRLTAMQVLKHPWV
Sequence of CDKL2 (Q92772 whole entry): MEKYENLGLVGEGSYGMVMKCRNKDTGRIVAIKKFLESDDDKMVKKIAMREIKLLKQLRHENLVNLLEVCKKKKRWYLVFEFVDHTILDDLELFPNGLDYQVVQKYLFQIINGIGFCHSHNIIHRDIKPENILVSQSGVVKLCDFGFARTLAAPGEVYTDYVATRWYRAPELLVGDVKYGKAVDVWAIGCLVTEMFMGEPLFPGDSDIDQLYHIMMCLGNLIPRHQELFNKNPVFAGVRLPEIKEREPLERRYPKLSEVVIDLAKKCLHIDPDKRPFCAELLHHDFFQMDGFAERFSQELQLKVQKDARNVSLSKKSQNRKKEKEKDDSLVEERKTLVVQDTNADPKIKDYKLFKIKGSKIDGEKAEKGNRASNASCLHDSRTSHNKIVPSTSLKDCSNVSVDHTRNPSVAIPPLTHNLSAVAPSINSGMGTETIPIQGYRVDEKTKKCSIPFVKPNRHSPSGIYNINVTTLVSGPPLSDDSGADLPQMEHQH
Sequence of KIT(D816V) (P10721 26-976 D816V): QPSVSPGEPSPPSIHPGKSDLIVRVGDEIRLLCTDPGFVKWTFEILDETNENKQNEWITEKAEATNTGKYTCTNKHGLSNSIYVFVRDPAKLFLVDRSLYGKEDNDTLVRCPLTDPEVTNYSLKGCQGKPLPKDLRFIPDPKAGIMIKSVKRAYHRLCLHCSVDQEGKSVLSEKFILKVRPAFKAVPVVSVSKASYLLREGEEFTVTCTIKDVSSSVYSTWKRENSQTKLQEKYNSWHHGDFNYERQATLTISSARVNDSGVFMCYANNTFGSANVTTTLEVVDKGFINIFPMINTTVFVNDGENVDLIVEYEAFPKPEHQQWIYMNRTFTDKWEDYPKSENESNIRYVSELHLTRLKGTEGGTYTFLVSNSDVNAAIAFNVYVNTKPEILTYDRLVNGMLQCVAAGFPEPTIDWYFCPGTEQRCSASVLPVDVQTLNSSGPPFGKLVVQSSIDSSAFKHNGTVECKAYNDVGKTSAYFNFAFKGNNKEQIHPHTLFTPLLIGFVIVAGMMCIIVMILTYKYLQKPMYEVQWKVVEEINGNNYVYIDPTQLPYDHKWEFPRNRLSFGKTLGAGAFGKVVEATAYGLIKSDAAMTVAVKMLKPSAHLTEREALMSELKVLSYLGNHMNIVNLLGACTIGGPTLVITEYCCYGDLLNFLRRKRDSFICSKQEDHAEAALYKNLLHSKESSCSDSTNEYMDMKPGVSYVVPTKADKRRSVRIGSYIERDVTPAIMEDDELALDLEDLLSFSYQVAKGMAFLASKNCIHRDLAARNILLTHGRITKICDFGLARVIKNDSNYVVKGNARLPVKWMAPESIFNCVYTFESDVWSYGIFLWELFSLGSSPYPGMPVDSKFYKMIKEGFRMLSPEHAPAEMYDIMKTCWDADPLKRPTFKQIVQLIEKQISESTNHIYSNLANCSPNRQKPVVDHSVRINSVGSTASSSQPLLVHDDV
Sequence of PRKCQ (Q04759 whole entry): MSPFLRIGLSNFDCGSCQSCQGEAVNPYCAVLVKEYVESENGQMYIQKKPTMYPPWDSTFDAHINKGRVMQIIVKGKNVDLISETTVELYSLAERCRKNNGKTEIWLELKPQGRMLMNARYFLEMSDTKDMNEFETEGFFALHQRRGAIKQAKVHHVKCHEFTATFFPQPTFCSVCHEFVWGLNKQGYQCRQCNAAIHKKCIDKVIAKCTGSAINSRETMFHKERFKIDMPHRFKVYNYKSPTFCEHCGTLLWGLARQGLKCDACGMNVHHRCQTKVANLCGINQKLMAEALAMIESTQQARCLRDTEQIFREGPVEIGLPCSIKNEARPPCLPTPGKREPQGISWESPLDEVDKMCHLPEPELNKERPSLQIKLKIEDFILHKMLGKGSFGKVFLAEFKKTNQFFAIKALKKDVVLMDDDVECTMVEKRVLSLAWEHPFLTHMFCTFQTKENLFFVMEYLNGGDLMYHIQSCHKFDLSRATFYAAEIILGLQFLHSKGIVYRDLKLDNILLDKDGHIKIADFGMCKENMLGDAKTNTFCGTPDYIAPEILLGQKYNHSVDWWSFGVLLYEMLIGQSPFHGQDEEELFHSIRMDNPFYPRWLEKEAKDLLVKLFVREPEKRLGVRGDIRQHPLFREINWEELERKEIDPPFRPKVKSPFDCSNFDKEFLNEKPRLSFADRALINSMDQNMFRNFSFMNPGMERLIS
Sequence of BTK (Q06187 whole entry): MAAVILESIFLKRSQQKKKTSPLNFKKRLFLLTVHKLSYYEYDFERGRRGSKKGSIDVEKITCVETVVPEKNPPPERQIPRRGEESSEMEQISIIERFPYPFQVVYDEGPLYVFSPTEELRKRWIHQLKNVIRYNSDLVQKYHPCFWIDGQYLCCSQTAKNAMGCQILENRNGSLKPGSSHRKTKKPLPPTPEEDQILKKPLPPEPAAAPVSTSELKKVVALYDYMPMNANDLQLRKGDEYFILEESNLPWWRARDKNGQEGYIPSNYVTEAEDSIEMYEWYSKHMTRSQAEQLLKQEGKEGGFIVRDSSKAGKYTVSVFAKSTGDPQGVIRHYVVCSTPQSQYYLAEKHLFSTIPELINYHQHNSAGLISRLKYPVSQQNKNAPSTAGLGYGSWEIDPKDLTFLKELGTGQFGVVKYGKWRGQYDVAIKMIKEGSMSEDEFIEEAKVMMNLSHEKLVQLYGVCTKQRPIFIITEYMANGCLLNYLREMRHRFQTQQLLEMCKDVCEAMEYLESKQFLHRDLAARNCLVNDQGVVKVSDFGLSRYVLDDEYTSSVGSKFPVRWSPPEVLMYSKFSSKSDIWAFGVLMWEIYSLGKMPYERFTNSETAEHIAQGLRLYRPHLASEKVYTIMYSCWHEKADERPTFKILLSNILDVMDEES
Sequence of MARK1 (Q9P0L2 whole entry): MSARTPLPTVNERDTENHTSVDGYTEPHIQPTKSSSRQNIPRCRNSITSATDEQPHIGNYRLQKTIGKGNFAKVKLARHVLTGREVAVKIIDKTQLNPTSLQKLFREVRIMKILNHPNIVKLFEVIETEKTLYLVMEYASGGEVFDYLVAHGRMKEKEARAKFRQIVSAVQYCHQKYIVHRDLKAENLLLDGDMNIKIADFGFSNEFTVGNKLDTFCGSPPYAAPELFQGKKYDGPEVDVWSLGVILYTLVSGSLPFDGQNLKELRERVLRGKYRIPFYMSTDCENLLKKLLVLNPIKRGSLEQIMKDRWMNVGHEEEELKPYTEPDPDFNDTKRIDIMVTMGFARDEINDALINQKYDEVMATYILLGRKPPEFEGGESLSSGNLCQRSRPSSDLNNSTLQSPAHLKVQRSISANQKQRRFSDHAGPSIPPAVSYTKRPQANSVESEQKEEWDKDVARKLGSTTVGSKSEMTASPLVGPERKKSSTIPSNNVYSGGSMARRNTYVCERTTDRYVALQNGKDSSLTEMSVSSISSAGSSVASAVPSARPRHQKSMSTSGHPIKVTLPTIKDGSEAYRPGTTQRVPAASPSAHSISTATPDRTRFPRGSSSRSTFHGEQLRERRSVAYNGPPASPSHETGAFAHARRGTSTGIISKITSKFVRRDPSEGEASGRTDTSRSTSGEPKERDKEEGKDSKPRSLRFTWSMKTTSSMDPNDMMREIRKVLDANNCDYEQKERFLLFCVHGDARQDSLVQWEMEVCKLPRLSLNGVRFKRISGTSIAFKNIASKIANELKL
Sequence of TXK (P42681 whole entry): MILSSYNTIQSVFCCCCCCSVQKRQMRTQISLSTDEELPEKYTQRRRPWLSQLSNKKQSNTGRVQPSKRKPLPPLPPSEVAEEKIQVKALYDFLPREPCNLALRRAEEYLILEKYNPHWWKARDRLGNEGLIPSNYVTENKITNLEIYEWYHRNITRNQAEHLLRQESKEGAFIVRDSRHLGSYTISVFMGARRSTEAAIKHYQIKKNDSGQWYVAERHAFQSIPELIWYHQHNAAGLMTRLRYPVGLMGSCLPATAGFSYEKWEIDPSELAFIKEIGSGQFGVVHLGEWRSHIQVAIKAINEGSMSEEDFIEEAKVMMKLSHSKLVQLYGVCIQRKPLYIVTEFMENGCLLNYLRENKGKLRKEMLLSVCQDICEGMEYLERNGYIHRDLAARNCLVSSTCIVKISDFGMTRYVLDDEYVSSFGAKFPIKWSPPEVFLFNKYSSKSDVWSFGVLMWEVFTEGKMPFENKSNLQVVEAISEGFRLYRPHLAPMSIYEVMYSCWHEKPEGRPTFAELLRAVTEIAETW

Row | SMILES | remaining binding at 10 µM [1] [%] | remaining binding at 10 µM [2] [%] | remaining binding at 10 µM [3] [%] | remaining binding at 10 µM [4] [%] | remaining binding at 10 µM [5] [%] | remaining binding at 10 µM [6] [%] | remaining binding at 10 µM [7] [%] | remaining binding at 10 µM [8] [%] | remaining binding at 10 µM [9] [%] | remaining binding at 10 µM [10] [%] | remaining binding at 10 µM [11] [%] | remaining binding at 10 µM [12] [%] | remaining binding at 10 µM [13] [%] | remaining binding at 10 µM [14] [%] | remaining binding at 10 µM [15] [%] | remaining binding at 10 µM [16] [%] | remaining binding at 10 µM [17] [%] | remaining binding at 10 µM [18] [%] | remaining binding at 10 µM [19] [%] | remaining binding at 10 µM [20] [%] | also measured
1 | COc1cc(N2CCC(N3CCN(C)CC3)CC2)ccc1Nc1ncc2c(n1)N(C)c1sc(C)nc1C(=O)N2 [Compound 3, 6-((2-methoxy-4-(4-(4-methylpiperazin-1-yl)piperidin-1-yl)phenyl)amino)-2,4-dimethyl-4,9-dihydro-10H-pyrimido[5,4-b]thiazolo[5,4-e][1,4]diazepin-10-one] | 19 | 57 | 80 | 98 | 100 | 99 | 75 | 65 | 86 | 38 | 17 | 44 | 89 | 92 | 91 | 99 | 11 | 87 | 85 | 84 | remaining binding at 10 µM [21]: 69%; remaining binding at 10 µM [22]: 73%; remaining binding at 10 µM [23]: 85%; remaining binding at 10 µM [24]: 100%; remaining binding at 10 µM [25]: 100%; remaining binding at 10 µM [26]: 100%; remaining binding at 10 µM ([27]; MAPKAPX5, 10000 nM): 100%; remaining binding at 10 µM [28]: 100%; remaining binding at 10 µM [29]: 100%; remaining binding at 10 µM [30]: 91%; remaining binding at 10 µM [31]: 84%; remaining binding at 10 µM [32]: 47%; remaining binding at 10 µM [33]: 78%
2 | COc1cc(N2CCC(N3CCN(C)CC3)CC2)ccc1Nc1ncc2c(n1)N(C)c1sc(C)nc1C(=O)N2C [Compound 5, 6-((2-methoxy-4-(4-(4-methylpiperazin-1-yl)piperidin-1-yl)phenyl)amino)-2,4,9-trimethyl-4,9-dihydro-10H-pyrimido[5,4-b]thiazolo[5,4-e][1,4]diazepin-10-one] | 95 | 97 | 79 | 96 | 99 | 100 | 95 | 95 | 100 | 100 | 79 | 100 | 88 | 100 | 7.9 | 100 | 100 | 89 | 100 | 31 | remaining binding at 10 µM [21]: 100%; remaining binding at 10 µM [22]: 99%; remaining binding at 10 µM [23]: 31%; remaining binding at 10 µM [24]: 100%; remaining binding at 10 µM [25]: 100%; remaining binding at 10 µM [26]: 100%; remaining binding at 10 µM ([27]; MAPKAPK5, 10000 nM): 93%; remaining binding at 10 µM [28]: 100%; remaining binding at 10 µM [29]: 100%; remaining binding at 10 µM [30]: 100%; remaining binding at 10 µM [31]: 22%; remaining binding at 10 µM [32]: 100%; remaining binding at 10 µM [33]: 100%
